Experimental data as given in US8404752B2, “Method of treating traumatic brain injury” (Oxygen Biotherapeutics, Inc., priority 2008, dated 2013).

Assay: Physical properties and gas carrying capacity of perfluoro-tert-butylcyclohexane
Assay type: physicochemical

CO2 carried: 196 ml of CO2 per 100 ml of PFC | lipophilicity: non-lipophilic | oxygen carried: about 43 mL of oxygen per 100 ml of PFC | water solubility: non-water soluble | Vapor Pressure (@ 25° C.): 3.8 mmHg | Vapor Pressure (@ 37° C.): 4.4 mmHg
SMILES: FC(F)(F)C(C(F)(F)F)(C(F)(F)F)C1(F)C(F)(F)C(F)(F)C(F)(F)C(F)(F)C1(F)F [perfluoro-tert-butylcyclohexane]
